Test results reported in patent publication US20260285872A1, “COMPOUNDS AND METHODS FOR DEGRADING GSPT1” (priority 2023, published 2026).
Read-outs that look alike come from different tables or passages of the source.

Legend:
GSPT1 = GSPT1 (Homo sapiens, UniProt P15170+Q96SW2); assay type: cell-based
Method: GSPT1_HiBIT_HEK293 cells were culture in DMEM medium with 10% FBS under standard tissue culture conditions. […] GSPT1 level was determined in along with the Nano-Glo HiBiT Lytic Detection system [Promega N3050] with final concentration of 1×. The luminescence was normalized to that of DMSO-treated samples. DC50 values were obtained using three-parameter non-linear regressions using Prism (GraphPad).

NCI-H1155 cells = assay: NSCLC cell viability, CellTiter-Glo, NCI-H1155 cells; assay type: cell-based; conditions: Homo sapiens, read-out: Cell viability classification (NCI-H1155)
[1] = read-out: GSPT1 degradation classification; DC50, GSPT1_HiBIT_HEK293 cells, 16 hours, Nano-Glo HiBiT Lytic Detection
[2] = NCI-H1155 cells, CellTiter-Glo, 72 hours of treatment
[3] = DC50, GSPT1_HiBIT_HEK293 cells, 16 hours, Nano-Glo HiBiT Lytic Detection; read-out: GSPT1 degradation classification

Chain of GSPT1 (P15170 whole entry): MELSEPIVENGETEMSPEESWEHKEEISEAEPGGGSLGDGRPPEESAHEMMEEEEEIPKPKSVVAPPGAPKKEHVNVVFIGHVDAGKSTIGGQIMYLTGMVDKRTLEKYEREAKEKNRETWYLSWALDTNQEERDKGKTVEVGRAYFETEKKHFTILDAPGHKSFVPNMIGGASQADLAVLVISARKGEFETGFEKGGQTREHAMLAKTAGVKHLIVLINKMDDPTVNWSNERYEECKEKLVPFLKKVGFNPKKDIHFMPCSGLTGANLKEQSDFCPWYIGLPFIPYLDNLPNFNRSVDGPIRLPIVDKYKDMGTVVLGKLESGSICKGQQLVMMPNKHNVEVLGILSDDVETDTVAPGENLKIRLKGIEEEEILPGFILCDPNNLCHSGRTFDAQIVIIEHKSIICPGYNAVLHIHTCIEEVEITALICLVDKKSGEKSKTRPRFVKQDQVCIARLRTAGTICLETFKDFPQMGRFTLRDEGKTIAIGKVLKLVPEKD
Chain of GSPT1 (Q96SW2 whole entry): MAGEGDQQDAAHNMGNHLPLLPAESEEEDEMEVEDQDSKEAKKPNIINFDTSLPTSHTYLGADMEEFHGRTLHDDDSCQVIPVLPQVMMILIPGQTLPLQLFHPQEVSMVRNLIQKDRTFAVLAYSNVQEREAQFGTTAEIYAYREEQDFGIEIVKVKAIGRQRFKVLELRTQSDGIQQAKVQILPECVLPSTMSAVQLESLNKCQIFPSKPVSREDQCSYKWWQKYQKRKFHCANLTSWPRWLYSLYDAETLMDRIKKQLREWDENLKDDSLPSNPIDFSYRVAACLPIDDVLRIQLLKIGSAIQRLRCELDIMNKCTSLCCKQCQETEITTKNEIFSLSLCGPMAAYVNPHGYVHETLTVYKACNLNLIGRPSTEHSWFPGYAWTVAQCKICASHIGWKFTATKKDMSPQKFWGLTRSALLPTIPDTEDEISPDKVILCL
Chain of GSPT1 (Q16531 whole entry partner): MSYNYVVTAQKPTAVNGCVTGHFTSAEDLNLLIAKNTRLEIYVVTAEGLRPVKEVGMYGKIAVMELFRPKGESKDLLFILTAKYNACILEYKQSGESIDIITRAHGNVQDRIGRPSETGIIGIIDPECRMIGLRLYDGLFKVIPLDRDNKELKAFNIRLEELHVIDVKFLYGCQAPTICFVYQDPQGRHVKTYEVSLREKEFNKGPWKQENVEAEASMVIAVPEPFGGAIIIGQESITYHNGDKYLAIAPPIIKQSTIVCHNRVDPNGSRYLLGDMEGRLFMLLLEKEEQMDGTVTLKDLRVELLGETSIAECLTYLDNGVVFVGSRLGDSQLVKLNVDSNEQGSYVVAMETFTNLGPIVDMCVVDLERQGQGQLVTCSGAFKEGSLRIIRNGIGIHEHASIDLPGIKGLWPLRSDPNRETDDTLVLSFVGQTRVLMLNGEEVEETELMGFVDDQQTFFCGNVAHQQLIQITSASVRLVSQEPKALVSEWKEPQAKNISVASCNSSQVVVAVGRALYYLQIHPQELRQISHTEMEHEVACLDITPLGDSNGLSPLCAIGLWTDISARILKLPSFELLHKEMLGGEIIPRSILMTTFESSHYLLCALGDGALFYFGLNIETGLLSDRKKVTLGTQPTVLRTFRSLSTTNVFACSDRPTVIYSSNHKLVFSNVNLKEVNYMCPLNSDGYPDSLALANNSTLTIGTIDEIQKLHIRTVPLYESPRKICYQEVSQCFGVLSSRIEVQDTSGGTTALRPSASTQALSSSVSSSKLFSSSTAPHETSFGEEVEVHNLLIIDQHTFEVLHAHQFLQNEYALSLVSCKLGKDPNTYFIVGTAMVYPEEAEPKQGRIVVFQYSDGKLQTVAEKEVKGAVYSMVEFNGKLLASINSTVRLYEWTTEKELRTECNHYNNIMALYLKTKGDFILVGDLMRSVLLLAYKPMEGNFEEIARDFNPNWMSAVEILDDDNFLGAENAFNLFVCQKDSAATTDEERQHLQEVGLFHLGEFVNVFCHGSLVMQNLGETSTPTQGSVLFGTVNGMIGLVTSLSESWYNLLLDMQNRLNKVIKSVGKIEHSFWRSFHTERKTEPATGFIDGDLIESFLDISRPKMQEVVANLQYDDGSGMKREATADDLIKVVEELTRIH

With `O=C1CCC(N2Cc3cc(C(=O)N4CCC5(CCC(F)(F)C5)C4)ccc3C2=O)C(=O)N1` (stereo not shown) [Example 201, 3-(5-(7,7-difluoro-2-azaspiro[4.4]nonane-2-carbonyl)-1-oxoisoindolin-2-yl)piperidine-2,6-dione] the DC50 (GSPT1; [1]) was over 1000 nM and the IC50 (NCI-H1155 cells; [2]) was 100 to 1000 nM.

Molecule `O=C1CCC(N2Cc3cc(C(=O)N4CC5(CC(c6ccccc6F)C5)C4)ccc3C2=O)C(=O)N1` (stereo not shown) [Example 196, 3-(5-(6-(2-fluorophenyl)-2-azaspiro[3.3]heptane-2-carbonyl)-1-oxoisoindolin-2-yl)piperidine-2,6-dione] has a DC50 (GSPT1; [3]) of under 100 nM and an IC50 (NCI-H1155 cells; [2]) of 10 to 100 nM.

`O=C1CCC(c2nc3cc(COC(=O)Nc4cc(OC(F)(F)F)ccc4F)ccc3o2)C(=O)N1` (stereo not shown) [Example 164, (2-(2,6-dioxopiperidin-3-yl)benzo[d]oxazol-5-yl)methyl (2-fluoro-5-(trifluoromethoxy)phenyl)carbamate] showed a DC50 (GSPT1; [3]) of 100 to 300 nM and an IC50 (NCI-H1155 cells; [2]) of 10 to 100 nM.

`O=C1CCC(N2Cc3cc(C(=O)N4CCC5(C4)CC(F)(F)C5)ccc3C2=O)C(=O)N1` (stereo not shown) [Example 189, 3-(5-(2,2-difluoro-6-azaspiro[3.4]octane-6-carbonyl)-1-oxoisoindolin-2-yl)piperidine-2,6-dione] showed a DC50 (GSPT1; [1]) of over 1000 nM and an IC50 (NCI-H1155 cells; [2]) of 100 to 1000 nM.

Molecule `O=C1CCC(N2Cc3cc(C(=O)N4CC5(CCC(OC(F)(F)F)CC5)C4)ccc3C2=O)C(=O)N1` (stereo not shown) [Example 184, 3-(1-oxo-5-(7-(trifluoromethoxy)-2-azaspiro[3.5]nonane-2-carbonyl)isoindolin-2-yl)piperidine-2,6-dione] has a DC50 (GSPT1; [3]) of 100 to 300 nM and an IC50 (NCI-H1155 cells; [2]) of 10 to 100 nM.

With `O=C1CCC(N2Cc3cc(C(=O)N4CC5(C4)CC(F)(c4cccc(F)c4)C5)ccc3C2=O)C(=O)N1` (stereo not shown) [Example 203, 3-(5-(6-fluoro-6-(3-fluorophenyl)-2-azaspiro[3.3]heptane-2-carbonyl)-1-oxoisoindolin-2-yl)piperidine-2,6-dione] the DC50 (GSPT1; [1]) was over 1000 nM and the IC50 (NCI-H1155 cells; NCI-H1155, 72 h) was 100 to 1000 nM.

`O=C1CCC(N2Cc3cc(C(=O)NC4CC5(C4)CC(c4ccc(C(F)(F)F)cc4)C5)ccc3C2=O)C(=O)N1` (stereo not shown) [Example 226, 2-(2,6-dioxopiperidin-3-yl)-1-oxo-N-(6-(4-(trifluoromethyl)phenyl)spiro[3.3]heptan-2-yl)isoindoline-5-carboxamide] gave a DC50 (GSPT1; [3]) of 100 to 300 nM and an IC50 (NCI-H1155 cells; [2]) of 10 to 100 nM.

For `Cc1ccc(C2CC3(C2)CN(C(=O)c2ccc4c(c2)CN(C2CCC(=O)NC2=O)C4=O)C3)cc1` (stereo not shown) [Example 231, 3-(1-oxo-5-(6-(p-tolyl)-2-azaspiro[3.3]heptane-2-carbonyl)isoindolin-2-yl)piperidine-2,6-dione], the DC50 (GSPT1; [3]) was under 100 nM and the IC50 (NCI-H1155 cells; [2]) was under 10 nM.

`O=C1CCC(N2Cc3cc(C(=O)N4CC5(C=C(c6ccc(C(F)(F)F)cc6)C5)C4)ccc3C2=O)C(=O)N1` (stereo not shown) [Example 209, 3-(1-oxo-5-(6-(4-(trifluoromethyl)phenyl)-2-azaspiro[3.3]hept-5-ene-2-carbonyl)isoindolin-2-yl)piperidine-2,6-dione] showed a DC50 (GSPT1; [1]) of under 100 nM and an IC50 (NCI-H1155 cells; [2]) of under 10 nM.

With `Cc1cc(F)c2c(c1)CN(C(=O)c1ccc3nc(C4CCC(=O)NC4=O)oc3c1)C2` (stereo not shown) [Example 199, 3-(6-(4-fluoro-6-methylisoindoline-2-carbonyl)benzo[d]oxazol-2-yl)piperidine-2,6-dione] the DC50 (GSPT1; [3]) was over 1000 nM and the IC50 (NCI-H1155 cells; [2]) was 100 to 1000 nM.

With `O=C1CCC(N2Cc3cc(C(=O)N4CC5(C=C(c6ccc(C(F)(F)F)c(F)c6)C5)C4)ccc3C2=O)C(=O)N1` (stereo not shown) [Example 240, 3-(5-(6-(3-fluoro-4-(trifluoromethyl)phenyl)-2-azaspiro[3.3]hept-5-ene-2-carbonyl)-1-oxoisoindolin-2-yl)piperidine-2,6-dione] the DC50 (GSPT1; [1]) was under 100 nM and the IC50 (NCI-H1155 cells; [2]) was under 10 nM.

With `N#Cc1ccc(C2CC3(CC(NC(=O)c4ccc5c(c4)CN(C4CCC(=O)NC4=O)C5=O)C3)C2)cc1` (stereo not shown) [Example 219, N-(6-(4-cyanophenyl)spiro[3.3]heptan-2-yl)-2-(2,6-dioxopiperidin-3-yl)-1-oxoisoindoline-5-carboxamide] the DC50 (GSPT1; [3]) was 100 to 300 nM and the IC50 (NCI-H1155 cells; [2]) was 10 to 100 nM.

Molecule `O=C1CCC(N2Cc3cc(C(=O)N4CC5(CC(C(F)(F)F)C5)C4)ccc3C2=O)C(=O)N1` (stereo not shown) [Example 145, 3-(1-oxo-5-(6-(trifluoromethyl)-2-azaspiro[3.3]heptane-2-carbonyl)isoindolin-2-yl)piperidine-2,6-dione] has a DC50 (GSPT1; [1]) of over 1000 nM and an IC50 (NCI-H1155 cells; [2]) of 10 to 100 nM.

`O=C1CCC(N2Cc3cc(C(=O)N4CC5(C=C(c6ccc(F)cc6)C5)C4)ccc3C2=O)C(=O)N1` (stereo not shown) [Example 169, 3-(5-(6-(4-fluorophenyl)-2-azaspiro[3.3]hept-5-ene-2-carbonyl)-1-oxoisoindolin-2-yl)piperidine-2,6-dione] was tested, and the DC50 (GSPT1; [1]) was over 1000 nM and the IC50 (NCI-H1155 cells; [2]) was 10 to 100 nM.

`O=C1CCC(N2Cc3cc(C(=O)N4Cc5c(F)ccc(F)c5C4)ccc3C2=O)C(=O)N1` (stereo not shown) [Example 147, 3-(5-(4,7-difluoroisoindoline-2-carbonyl)-1-oxoisoindolin-2-yl)piperidine-2,6-dione] was tested, and the DC50 (GSPT1; [1]) was under 100 nM and the IC50 (NCI-H1155 cells; [2]) was 10 to 100 nM.

Molecule `O=C1CCC(N2Cc3cc(C(=O)N4CC5(C=C(c6ccc(F)cc6F)C5)C4)ccc3C2=O)C(=O)N1` (stereo not shown) [Example 235] has a DC50 (GSPT1; [1]) of under 100 nM and an IC50 (NCI-H1155 cells; [2]) of under 10 nM.

Work on `O=C1CCC(c2nc3ccc(C(=O)N4Cc5cccc(F)c5C4)cc3o2)C(=O)N1` (stereo not shown) [Example 137, 3-(6-(4-fluoroisoindoline-2-carbonyl)benzo[d]oxazol-2-yl)piperidine-2,6-dione] yielded a DC50 (GSPT1; [3]) of 300 to 1000 nM and an IC50 (NCI-H1155 cells; [2]) of 100 to 1000 nM.

With `O=C1CCC(N2Cc3cc(C(=O)N4Cc5cccc(Cl)c5C4)ccc3C2=O)C(=O)N1` (stereo not shown) [Example 112, 3-(5-(4-chloroisoindoline-2-carbonyl)-1-oxoisoindolin-2-yl)piperidine-2,6-dione] the DC50 (GSPT1; [1]) was under 100 nM and the IC50 (NCI-H1155 cells; [2]) was under 10 nM.

Molecule `O=C1CCC(N2Cc3cc(C(=O)N4Cc5ccc(OC(F)(F)F)c(F)c5C4)ccc3C2=O)C(=O)N1` (stereo not shown) [Example 263, 3-(5-(4-fluoro-5-(trifluoromethoxy)isoindoline-2-carbonyl)-1-oxoisoindolin-2-yl)piperidine-2,6-dione] has a DC50 (GSPT1; [1]) of 100 to 300 nM and an IC50 (NCI-H1155 cells; [2]) of 10 to 100 nM.

`O=C1CCC(N2Cc3cc(C(=O)N4CC5(CC(c6ccc(C(F)(F)F)cc6)C5)C4)ccc3C2=O)C(=O)N1` (stereo not shown) [Example 230, 3-(1-oxo-5-(6-(4-(trifluoromethyl)phenyl)-2-azaspiro[3.3]heptane-2-carbonyl)isoindolin-2-yl)piperidine-2,6-dione] showed a DC50 (GSPT1; [3]) of under 100 nM and an IC50 (NCI-H1155 cells; [2]) of under 10 nM.

Work on `O=C1CCC(c2nc3ccc(C(=O)N4CC5(CCC(F)(F)C5)C4)cc3o2)C(=O)N1` (stereo not shown) [Example 198, 3-(6-(6,6-difluoro-2-azaspiro[3.4]octane-2-carbonyl)benzo[d]oxazol-2-yl)piperidine-2,6-dione] yielded a DC50 (GSPT1; [3]) of over 1000 nM and an IC50 (NCI-H1155 cells; [2]) of over 1000 nM.

Molecule `O=C1CCC(c2nc3ccc(C(=O)N4Cc5c(F)ccc(OC(F)(F)F)c5C4)cc3o2)C(=O)N1` (stereo not shown) [Example 210, 3-(6-(4-fluoro-7-(trifluoromethoxy)isoindoline-2-carbonyl)benzo[d]oxazol-2-yl)piperidine-2,6-dione] has a DC50 (GSPT1; [3]) of over 1000 nM and an IC50 (NCI-H1155 cells; [2]) of over 1000 nM.

Molecule `O=C1CCC(N2Cc3cc(C(=O)N4Cc5c(Cl)ccc(C(F)(F)F)c5C4)ccc3C2=O)C(=O)N1` (stereo not shown) [Example 261, 3-(5-(4-chloro-7-(trifluoromethyl)isoindoline-2-carbonyl)-1-oxoisoindolin-2-yl)piperidine-2,6-dione] has a DC50 (GSPT1; [1]) of 100 to 300 nM and an IC50 (NCI-H1155 cells; [2]) of 10 to 100 nM.
